From ChEMBL document CHEMBL3868587, “Heptaketides from an Endolichenic Fungus Biatriospora sp. and Their Antifungal Activity” (2016)
In brackets after ≈: the same amount, converted by molar mass. Activity calls are given as the source filed them. The calls are words filed in the database; no cut-off is given here.

Tests used:
Candida albicans [1] = test: Antifungal activity against Candida albicans SC5314 by CLSI broth microdilution method; assay type: functional
[2] = Antifungal activity against Candida albicans clinical isolate 24D after 24 hrs in presence of fluconazole by XTT based broth microdilution assay; assay type: functional
[3] = Reduction in CDR1 mRNA expression in fluconazole-resistant Candida albicans clinical isolate 24D at 1 ug/ml measured after 12 hrs by qPCR method relative to control; assay type: functional
Candida albicans [4] = test: Antifungal activity against Candida albicans clinical isolate 145 after 24 hrs in presence of fluconazole by XTT based broth microdilution assay; assay type: functional; conditions: isolate 145, 24 h
[5] = Antifungal activity against fluconazole-resistant Candida albicans clinical isolate 142 by CLSI broth microdilution method; assay type: functional
Candida albicans [6] = test: Inhibition of CDR1/CDR2 in Candida albicans clinical isolate 142 assessed as potentiation of fluconazole-induced antifungal activity measured as reduction in fluconazole MIC80 up to 8 ug/ml after 24 hrs by XTT based broth microdilution assay relative to fluconazole
Candida albicans [7] = test: Inhibition of CDR1/CDR2 in Candida albicans clinical isolate 144 assessed as potentiation of fluconazole-induced antifungal activity up to 8 ug/ml after 24 hrs by broth microdilution checkerboard assay
Candida albicans [8] = test: Inhibition of CDR1/CDR2 in Candida albicans clinical isolate 18I assessed as potentiation of fluconazole-induced antifungal activity up to 8 ug/ml after 24 hrs by broth microdilution checkerboard assay
[9] = Antifungal activity against Candida albicans clinical isolate 147 after 24 hrs in presence of fluconazole by XTT based broth microdilution assay; assay type: functional
[10] = Upregulation of CDR1 mRNA expression in fluconazole-resistant Candida albicans clinical isolate 24D at 2 ug/ml measured after 12 hrs by qPCR method relative to control; assay type: functional
Candida albicans [11] = test: Inhibition of CDR1/CDR2 in Candida albicans clinical isolate 147 assessed as potentiation of fluconazole-induced antifungal activity up to 8 ug/ml after 24 hrs by broth microdilution checkerboard assay
Candida albicans [12] = test: Inhibition of Candida albicans clinical isolate 24D CDR1/CDR2 assessed as inhibtion of glucose-induced rhodamine-123 efflux at 1 ug/ml measured after 30 mins by flow cytometry
[13] = Antifungal activity against fluconazole-resistant Candida albicans clinical isolate 145 by CLSI broth microdilution method; assay type: functional
[14] = Antifungal activity against Candida albicans clinical isolate 18I after 24 hrs in presence of fluconazole by XTT based broth microdilution assay; assay type: functional
[15] = Antifungal activity against fluconazole-resistant Candida albicans clinical isolate 24D by CLSI broth microdilution method; assay type: functional
Candida albicans [16] = test: Antifungal activity against Candida albicans clinical isolate 144 after 24 hrs in presence of fluconazole by XTT based broth microdilution assay; assay type: functional; conditions: isolate 144, 24 h
[17] = Upregulation of CDR2 mRNA expression in fluconazole-resistant Candida albicans clinical isolate 24D at 2 ug/ml measured after 12 hrs by qPCR method relative to control; assay type: functional
Candida albicans [18] = test: Inhibition of CDR1/CDR2 in Candida albicans clinical isolate 142 assessed as potentiation of fluconazole-induced antifungal activity up to 8 ug/ml after 24 hrs by broth microdilution checkerboard assay
[19] = Reduction in CDR2 mRNA expression in fluconazole-resistant Candida albicans clinical isolate 24D at 1 ug/ml measured after 12 hrs by qPCR method relative to control; assay type: functional
Candida albicans [20] = test: Antifungal activity against Candida albicans clinical isolate 142 after 24 hrs in presence of fluconazole by XTT based broth microdilution assay; assay type: functional; conditions: isolate 142, 24 h
[21] = Antifungal activity against fluconazole-resistant Candida albicans clinical isolate 144 by CLSI broth microdilution method; assay type: functional
[22] = Antifungal activity against fluconazole-resistant Candida albicans clinical isolate 18I by CLSI broth microdilution method; assay type: functional
Candida albicans [23] = test: Inhibition of CDR1/CDR2 in Candida albicans clinical isolate 24D assessed as potentiation of fluconazole-induced antifungal activity up to 8 ug/ml after 24 hrs by broth microdilution checkerboard assay
Candida albicans [24] = test: Inhibition of CDR1/CDR2 in Candida albicans clinical isolate 145 assessed as potentiation of fluconazole-induced antifungal activity up to 8 ug/ml after 24 hrs by broth microdilution checkerboard assay
[25] = Antifungal activity against fluconazole-resistant Candida albicans clinical isolate 147 by CLSI broth microdilution method; assay type: functional
Candida albicans [26] = test: Inhibition of Candida albicans clinical isolate 24D CDR1/CDR2 assessed as inhibtion of glucose-induced rhodamine-123 efflux at 1 ug/ml measured after 30 mins by confocal microscopic analysis
Candida albicans [27] = test: Inhibition of CDR1/CDR2 in Candida albicans clinical isolate 147 assessed as potentiation of fluconazole-induced antifungal activity by measuring fluconazole MIC80 up to 8 ug/ml after 24 hrs by XTT based broth microdilution assay (reference value: >128 ug/ml)
Candida albicans [28] = test: Inhibition of CDR1/CDR2 in Candida albicans clinical isolate 145 assessed as potentiation of fluconazole-induced antifungal activity by measuring fluconazole MIC80 up to 8 ug/ml after 24 hrs by XTT based broth microdilution assay (reference value: >128 ug/ml)
Candida albicans [29] = test: Inhibition of CDR1/CDR2 in Candida albicans clinical isolate 142 assessed as potentiation of fluconazole-induced antifungal activity by measuring fluconazole MIC80 up to 8 ug/ml after 24 hrs by XTT based broth microdilution assay (reference value: >128 ug/ml)
Candida albicans [30] = test: Inhibition of CDR1/CDR2 in Candida albicans clinical isolate 144 assessed as potentiation of fluconazole-induced antifungal activity by measuring fluconazole MIC80 up to 8 ug/ml after 24 hrs by XTT based broth microdilution assay (reference value: >128 ug/ml)
Candida albicans [31] = test: Inhibition of CDR1/CDR2 in Candida albicans clinical isolate 24D assessed as potentiation of fluconazole-induced antifungal activity by measuring fluconazole MIC80 up to 8 ug/ml after 24 hrs by XTT based broth microdilution assay (reference value: >128 ug/ml)
Candida albicans [32] = test: Inhibition of CDR1/CDR2 in Candida albicans clinical isolate 18I assessed as potentiation of fluconazole-induced antifungal activity by measuring fluconazole MIC80 up to 8 ug/ml after 24 hrs by XTT based broth microdilution assay (reference value: >128 ug/ml)

In the case of `COc1cc(O)c2c(c1)C(=O)C1=C(C2=O)[C@H](OC)O[C@@H](C)C1`, the MIC80 (Candida albicans [1]) is reported as 64 µg/mL (≈ 210 µM).

Work on `CN(C/C=C/C#CC(C)(C)C)Cc1cccc2ccccc12` [TERBINAFINE] yielded an MIC80 (Candida albicans [1]) of 16 µg/mL (≈ 54.9 µM).

In the case of `COc1cc(O)c2c(c1)C(=O)C(CC(C)=O)=C(C)C2=O`, the MIC80 (Candida albicans [1]) is reported as 64 µg/mL (≈ 233 µM).

For `COc1cc(O)c2c(c1)-c1oc(C)cc1C(=O)C2=O`, the MIC80 [2] was 0.25 µg/mL, the fold change (FC) [3] was 0.4 and the MIC80 (Candida albicans [4]) was 0.125 µg/mL. The MIC80 [5] was 16 µg/mL (≈ 62 µM), the fold change (FC) (Candida albicans [6]) was > 256 and the fractional inhibitory concentration index (FICI) (Candida albicans [7]) was 0.02. The fractional inhibitory concentration index (FICI) (Candida albicans [8]) was 0.02, the MIC80 [9] was 0.125 µg/mL and the fold change (FC) [10] was 2. The fractional inhibitory concentration index (FICI) (Candida albicans [11]) was 0.02, the inhibition (Candida albicans [12]) was “Active” and the MIC80 [13] was 16 µg/mL (≈ 62 µM). It also gave an MIC80 [14] of 0.25 µg/mL, an MIC80 [15] of 16 µg/mL (≈ 62 µM) and an MIC80 (Candida albicans [16]) of 0.125 µg/mL. For the same compound, the fold change (FC) [17] was 3.6, the MIC80 (Candida albicans [1]) was 16 µg/mL (≈ 62 µM) and the fractional inhibitory concentration index (FICI) (Candida albicans [18]) was 0.01. It also gave a fold change (FC) [19] of 0.5, an MIC80 (Candida albicans [20]) of 0.125 µg/mL and an MIC80 [21] of 16 µg/mL (≈ 62 µM). For the same compound, the MIC80 [22] was 16 µg/mL (≈ 62 µM), the fractional inhibitory concentration index (FICI) (Candida albicans [23]) was 0.03 and the fractional inhibitory concentration index (FICI) (Candida albicans [24]) was 0.04. The MIC80 [25] was 16 µg/mL (≈ 62 µM) and the inhibition (Candida albicans [26]) was “Active”.

Compound `CC1=CC2=C(CO1)C(=O)c1c(O)cc(O)cc1C2=O` has an MIC80 (Candida albicans [1]) of 32 µg/mL (≈ 124 µM).

In the case of `OC(Cn1cncn1)(Cn1cncn1)c1ccc(F)cc1F` [FLUCONAZOLE], the MIC80 (Candida albicans [27]) is reported as 2 µg/mL, the MIC80 [5] is reported as > 128 µg/mL and the MIC80 (Candida albicans [28]) is reported as 4 µg/mL. For the same compound, the MIC80 (Candida albicans [29]) was 0.5 µg/mL, the MIC80 (Candida albicans [30]) was 2 µg/mL and the MIC80 (Candida albicans [31]) was 2 µg/mL. The MIC80 [13] was > 128 µg/mL, the MIC80 [15] was > 128 µg/mL and the MIC80 (Candida albicans [1]) was 2 µg/mL (≈ 6.53 µM). The MIC80 (Candida albicans [32]) was 1 µg/mL, the MIC80 [21] was > 128 µg/mL and the MIC80 [22] was > 128 µg/mL. The MIC80 [25] was > 128 µg/mL.
